Measurements from PubChem BioAssay (NCI).
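A five-concentration, 48-hour dose response in 96-well plates underlies each endpoint, interpolated linearly between surrounding concentrations. At the GI50, growth is halved. TGI is the concentration that stops growth completely.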

Assays:
Test in all cases: DTP human tumour cell line panel, 48 h
M14 melanoma = system: M14 melanoma
NCI-H226 lung = system: NCI-H226 lung
OVCAR-5 ovarian = system: OVCAR-5 ovarian
LOX IMVI melanoma = system: LOX IMVI melanoma
CCRF-CEM leukemia = system: CCRF-CEM leukemia
OVCAR-4 ovarian = system: OVCAR-4 ovarian
OVCAR-3 ovarian = system: OVCAR-3 ovarian
CAKI-1 renal = system: CAKI-1 renal
K-562 leukemia = system: K-562 leukemia
RXF 393 renal = system: RXF 393 renal
NCI/ADR-RES ovarian = system: NCI/ADR-RES ovarian
NCI-H522 lung = system: NCI-H522 lung

SMILES | TGI (M14 melanoma) [µM] | TGI (NCI-H226 lung) [µM] | TGI (OVCAR-5 ovarian) [µM] | TGI (LOX IMVI melanoma) [µM] | TGI (CCRF-CEM leukemia) [µM] | TGI (OVCAR-4 ovarian) [µM] | TGI (OVCAR-3 ovarian) [µM] | TGI (CAKI-1 renal) [µM] | TGI (K-562 leukemia) [µM] | TGI (RXF 393 renal) [µM] | TGI (NCI/ADR-RES ovarian) [µM] | TGI (NCI-H522 lung) [µM] | GI50 (OVCAR-4 ovarian) [µM] | GI50 (NCI-H226 lung) [µM] | GI50 (OVCAR-5 ovarian) [µM] | GI50 (CCRF-CEM leukemia) [µM] | GI50 (OVCAR-3 ovarian) [µM] | GI50 (NCI/ADR-RES ovarian) [µM] | GI50 (K-562 leukemia) [µM] | GI50 (RXF 393 renal) [µM]
Cc1ccc(S(=O)(=O)N/N=c2\c(C)c(C3=NS(=O)(=O)c4cc(S(N)(=O)=O)c(Cl)cc4N3)oc3c(Cl)cc(Cl)cc23)cc1 | > 100 | > 100 | > 100 | > 100 | > 100 | > 100 | > 100 | > 100 | > 100 | > 100 |  |  |  |  |  |  |  |  |  | 
O=[N+]([O-])c1ccc2c(c1)Nc1c3ccccc3nc3cccc-2c13 | 16.9 | > 93.6 | 20.5 | 6.67 | 6.19 | 11.4 | 3.8 | 18.8 | > 19.7 | 32.9 | 17.1 | 33.2 |  |  |  |  |  |  |  | 
Cc1cc2c(cc1C)[n+](=O)c(C#N)c(Cl)n2[O-] |  | > 100 | 25.8 | 39.2 | 45.3 | 31.2 | 20.6 | 19.7 | > 100 | 26.4 | 42.3 | 26.3 |  |  |  |  |  |  |  | 
CC(C)OC(=O)C1=C(O)c2ccccc2S(=O)(=O)N1 | > 100 | > 100 | > 100 | > 100 | > 100 | > 100 | > 100 | > 100 | > 100 |  |  | > 100 |  |  |  |  |  |  |  | 
O=C(O)NCc1ccccc1 (tested in a mixture with another compound) | 99.3 | > 79.7 | > 100 | > 100 | 51.7 | > 95.8 | > 96.1 | > 100 | > 77 | > 75.5 | > 90 | 96.7 |  |  |  |  |  |  |  | 
CCOC(=O)[C@H]1Nc2c(cccc2[N+](=O)[O-])[C@H]2OCC[C@@H]12 | > 100 | > 100 | > 100 | > 100 |  | > 100 | > 100 | > 100 | > 100 | > 100 |  | > 100 |  |  |  |  |  |  |  | 
Oc1c2c(c3c4c1N=CC=4CCN=3)-c1c(Br)cc(Br)cc1CCN2 |  | 16.8 | 8.66 | 4.06 | 6.7 | 6.23 |  | 51.1 | 7.57 | 20.2 | 12.5 | 4.2 |  |  |  |  |  |  |  | 
C=C1CC[C@@H](Br)C(C)(C)[C@]12CCC(C)(O)C(Cl)C2 (some centres undefined) |  | 31 | 36.9 | 35.2 | 47.9 |  | 35.8 | 32 | 49.4 | 34.2 |  | 32 |  |  |  |  |  |  |  | 
CC(=O)OC/C=C/Cn1ncc(=O)[nH]c1=O | > 100 | > 100 | > 100 | > 100 |  |  | > 100 | > 100 | > 100 | > 100 | > 100 | > 100 |  |  |  |  |  |  |  | 
Nc1nncc2c1ccn2C1OC(CO)C(O)C1O (centres undefined) | > 100 | > 100 | > 100 | > 100 | > 100 | > 100 | > 100 |  | > 100 | > 100 |  |  |  |  |  |  |  |  |  | 
CC1CCC(O)(C(C)(C(=O)O)c2ccccc2)CC1 (centres undefined) | > 100 | > 100 | > 100 | > 100 | > 100 | > 100 | > 100 | > 100 | > 100 | > 100 | > 100 | > 100 |  |  |  |  |  |  |  | 
COc1cc(N/N=C/C#N)cc(OC)c1OC | > 10 | > 10 | > 10 | 3.24 | > 10 | > 10 | > 10 | > 10 | > 10 | > 10 | > 10 | 3.68 |  |  |  |  |  |  |  | 
CCOC(=O)Nc1cc2c(c(N)n1)N=C(c1ccccc1)[C@H](C)N2 | 13.8 | 0.0464 | 53.9 | 17.7 | 0.0464 | > 100 | 0.016 |  |  |  |  | < 0.0001 | 16.2 |  |  |  |  |  |  | 
O=C(O)CCSCc1ccc(I)cc1 | > 100 | > 100 | > 100 | > 100 | > 100 | > 100 | > 100 | > 100 | > 100 | > 100 | > 100 | > 100 |  |  |  |  |  |  |  | 
CCC1CN2CCC1CC2 (centres undefined) |  | > 100 | > 100 | > 100 | > 100 | > 100 | > 100 |  | > 100 | > 100 | > 100 | > 100 |  |  |  |  |  |  |  | 
O=C(N/C(=C\c1cccc([N+](=O)[O-])c1)c1nc2[nH]c(=S)[nH]c(=O)c2[nH]1)c1ccccc1 | > 100 | > 100 | > 100 | > 100 | > 100 | > 100 | > 100 | > 100 | > 100 | > 100 |  | > 100 |  |  |  |  |  |  |  | 
NC(=S)Nc1cc(Cl)ccc1Cl | > 100 | > 100 | > 100 | > 100 | > 100 | > 100 | > 100 | > 100 | > 100 | > 100 |  | > 100 |  |  |  |  |  |  |  | 
CCCCCCCCCCCCCCCC(=O)OCC1CCCN2CCCCC12 (centres undefined) | > 100 | > 100 | > 100 | > 100 | > 100 | > 100 | > 100 | > 100 | > 100 | > 100 | > 100 |  |  |  |  |  |  |  |  | 
C/C(=N\Oc1cc(Cl)ncn1)c1ccccn1 | > 100 | > 100 | > 100 | > 100 | > 100 | > 100 | > 100 | 57.5 | > 100 | 95.7 | > 100 | 39.4 |  |  |  |  |  |  |  | 
CC[C@H](Nc1nc(N)nc(C)c1C#N)c1nc2cccc(NCc3ccc(C(=O)NO)cc3)c2c(=O)n1-c1ccccc1 |  | 4.13 | 4.01 |  | > 100 | 7.52 | 3.26 |  | > 100 | 3.05 | > 100 |  | 2.01 | 1.61 | 1.49 | 0.679 | 1.2 | 13.5 | 2.44 | 1.21
O=C(CCl)NC(Cc1ccc(F)cc1)C(=O)O (centres undefined) |  | > 100 | > 100 | > 100 | > 100 | > 100 | > 100 | > 100 | > 100 |  | > 100 | > 100 |  |  |  |  |  |  |  | 
